These are literature values, as cited in patent US9884017B2, “Foamable vehicles and pharmaceutical compositions comprising aprotic polar solvents and uses thereof” (Foamix Pharmaceuticals Ltd., priority 2009, dated 2018).

For this data set the following is noted: 25° C.

In the case of `CN(C)C=O` [DMF, dimethylformamide], the Dielectric constant was 36.7 and the Polarity is given as 3.8 Debye.
Take `C[S+](C)[O-]` [DMSO, Dimethyl sulfoxide]: the Dielectric constant is reported as 46.4 and the Polarity is 4.3 Debye.
